Results reported in PMC6733653 (Insect biochemistry and molecular biology, 2019).
Structures can show the parent of a compound that is named as a salt.

Tests used:
Assay in all cases: two-electrode voltage clamp, Xenopus oocytes, concentration-response
Type in all cases: cell-based
[1] = molecular target: T1, CquiOR5 (Culex quinquefasciatus, UniProt A0A3G1T0A9)
T1 sequence (A0A3G1T0A9 1-393): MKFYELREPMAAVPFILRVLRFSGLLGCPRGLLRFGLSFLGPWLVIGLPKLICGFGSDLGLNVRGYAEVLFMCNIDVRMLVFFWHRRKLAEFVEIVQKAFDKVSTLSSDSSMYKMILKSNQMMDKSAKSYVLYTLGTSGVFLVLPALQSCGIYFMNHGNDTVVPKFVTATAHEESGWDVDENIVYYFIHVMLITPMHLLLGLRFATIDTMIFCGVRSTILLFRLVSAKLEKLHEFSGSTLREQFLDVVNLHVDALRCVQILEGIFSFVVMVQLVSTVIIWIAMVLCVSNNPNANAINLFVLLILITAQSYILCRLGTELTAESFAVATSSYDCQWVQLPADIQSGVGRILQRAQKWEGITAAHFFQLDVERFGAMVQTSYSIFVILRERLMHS

[2] = molecular target: T2, CquiOR4 (Culex quinquefasciatus, UniProt A0A3G1T0B0)
T2 sequence (A0A3G1T0B0 1-391): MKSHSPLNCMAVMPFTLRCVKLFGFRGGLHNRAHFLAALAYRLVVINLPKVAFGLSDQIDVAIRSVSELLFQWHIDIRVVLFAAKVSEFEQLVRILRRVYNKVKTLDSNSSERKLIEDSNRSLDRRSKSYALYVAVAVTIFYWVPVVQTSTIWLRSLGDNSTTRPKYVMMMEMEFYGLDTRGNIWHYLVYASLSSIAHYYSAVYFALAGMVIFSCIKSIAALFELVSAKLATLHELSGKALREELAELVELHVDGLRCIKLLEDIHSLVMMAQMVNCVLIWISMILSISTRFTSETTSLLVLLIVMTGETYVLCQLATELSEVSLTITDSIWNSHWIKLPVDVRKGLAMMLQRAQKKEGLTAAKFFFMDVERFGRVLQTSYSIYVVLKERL

[3] = molecular target: T3, AaegOR15 (Aedes aegypti, UniProt A0A6B9QIR2)
T3 sequence (A0A6B9QIR2 1-390): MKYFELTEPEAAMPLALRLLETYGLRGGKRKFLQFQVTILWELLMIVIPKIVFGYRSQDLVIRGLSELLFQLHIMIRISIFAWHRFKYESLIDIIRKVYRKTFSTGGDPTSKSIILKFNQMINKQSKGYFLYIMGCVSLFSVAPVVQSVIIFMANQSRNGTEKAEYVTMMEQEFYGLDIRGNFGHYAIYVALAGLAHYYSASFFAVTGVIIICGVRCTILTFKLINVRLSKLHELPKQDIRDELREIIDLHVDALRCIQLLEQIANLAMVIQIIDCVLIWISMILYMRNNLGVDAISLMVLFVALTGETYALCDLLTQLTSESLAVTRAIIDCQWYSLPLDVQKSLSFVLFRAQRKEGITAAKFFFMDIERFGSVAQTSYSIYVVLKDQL
T3 sequence (Q178U6 1-478 partner): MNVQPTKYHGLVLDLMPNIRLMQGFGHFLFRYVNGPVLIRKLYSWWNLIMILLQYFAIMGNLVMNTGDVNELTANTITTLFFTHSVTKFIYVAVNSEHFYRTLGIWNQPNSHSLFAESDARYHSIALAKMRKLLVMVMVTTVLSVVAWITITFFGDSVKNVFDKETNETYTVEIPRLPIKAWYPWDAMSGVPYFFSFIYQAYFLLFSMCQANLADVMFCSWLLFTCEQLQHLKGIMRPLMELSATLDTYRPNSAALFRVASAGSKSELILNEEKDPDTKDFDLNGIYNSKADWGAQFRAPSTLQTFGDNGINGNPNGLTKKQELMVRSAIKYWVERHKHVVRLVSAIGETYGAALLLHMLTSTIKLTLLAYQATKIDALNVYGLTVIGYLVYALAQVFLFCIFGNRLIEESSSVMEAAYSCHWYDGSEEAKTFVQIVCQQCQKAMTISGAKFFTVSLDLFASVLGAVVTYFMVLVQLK

[4] = molecular target: T2, CquiOR4; remark: listed apart in the source

| SMILES | two-electrode voltage clamp, Xenopus oocytes, concentration-response [3] | further results |
| --- | --- | --- |
| C=CC(C)(O)CCC=C(C)C (racemic) [linalool] |  | EC50 [1]: 574 nM |
| OCCc1ccccc1 [2-phenylethanol] |  | EC50 [2]: 28 nM |
| CC(=O)c1ccccc1 [acetophenone] | AaegOR15/AaegOrco-expressing oocytes generated dose-dependent, robust currents when challenged with phenethyl propionate, phenethyl formate, and acetophenone |  |
| OCc1ccccc1 [benzyl alcohol] | Concentration-dependent responses of AaegOR15·AaegOrco-expressing oocytes to four major odorants |  |
| O=COCCc1ccccc1 [phenethyl formate] | AaegOR15/AaegOrco-expressing oocytes generated dose-dependent, robust currents when challenged with phenethyl propionate, phenethyl formate, and acetophenone |  |
| CCC(=O)OCCc1ccccc1 [phenethyl propionate] | AaegOR15/AaegOrco-expressing oocytes generated dose-dependent, robust currents when challenged with phenethyl propionate, phenethyl formate, and acetophenone | two-electrode voltage clamp, Xenopus oocytes, concentration-response [4]: 2-Phenylethanol, phenethyl formate, and phenethyl propionate were the best ligands for CquiOR4 |
